Two compounds from patent US20210121432A1, “Bambuterol for the Treatment of Alzheimer's Disease” (priority 2018, published 2021) can be followed below.

In experiment [1] the test system is rat primary hippocampal neurons injured with Aβ. Kind of experiment: Plate A: survival and neurite network of MAP-2 hippocampal neurons injured with Aβ1-42. Format: cell-based. The settings on record: for Neurite length per neuron (total neurite network normalized by the number of neurons): FIG. 2C. Here is the method: (§1) Bambuterol, referred to as MR36621 in the experiments was tested on rat primary hippocampal neurons that were injured with Aβ. Donezpil was used as a reference test compound.
(§2) Rat hippocampal neurons were cultured as described by Callizot et al., Operational dissection of β-amyloid cytopathic effects of cultured neurons, J. Neurosci. Res. 2013 May; 91(5): 706-16. Pregnant female rats of 17 days gestation (Rats Wistar; Janvier Labs France) were euthanized using a deep anesthesia with a CO2 chamber followed by a cervical dislocation. Fetuses were removed from the uterus and immediately placed in ice-cold L15 Leibovitz medium with a 2% penicillin (10,000 U/ml) and streptomycin (10 mg/ml) solution (PS) and 1% bovine serum albumin (BSA).
(§3) Hippocampal neurons were treated for 20 min at 37° C. with a trypsin-EDTA solution at a final concentration of 0.05% trypsin and 0.02% EDTA. The dissociation was stopped by adding Dulbecco's modified Eagle's medium (DMEM) with 4.5 g/liter of glucose, containing DNAse I grade II (final concentration 0.5 mg/ml) and 10% fetal calf serum (FCS). Cells were mechanically dissociated by three forced passages through the tip of a 10-ml pipette and then centrifuged at 515×g for 10 min at 4° C.
The supernatant was discarded, and the pellet was resuspended in a defined culture medium consisting of Neurobasal medium with a 2% solution of B27 supplement, 2 mmol/liter of L-glutamine, 2% of PS solution, and 10 ng/ml of brain-derived neurotrophic factor (BDNF). Viable cells were counted in a Neubauer cytometer, using the trypan blue exclusion test. Cells were seeded at a density of 20,000 per well in 96-well plates precoated with poly-L-lysine and cultured at 37° C. in an air (95%)-CO2 (5%) incubator. The medium was changed every 2 days.
The hippocampal neurons were exposed with A solutions after 17 days of culture. An Aβ1-42 preparation was done following the procedure described by Callizot et al., 2013. Aβ1-42 is a forty-two amino acid form of amyloid β in cerebrospinal fluid and is recognized by persons of ordinary skill in the art as a biomarker for Alzheimer's disease.
Aβ1-42 peptide was dissolved in the defined culture medium mentioned above, at an initial concentration of 40 μM. This solution was gently agitated for 3 days at 37° C. in the dark and immediately used after being properly diluted in culture medium to the concentrations used (20 μM (plate 13) or 2.5 μM (plate 14) corresponding to 2 μM or 0.25 μM of oligomers (AβO) respectively).
Bambuterol was placed in a culture medium and preincubated for 1 hour before Aβ application. An Aβ1-42 preparation was added to a final concentration of 20 or 2.5 μM (=2 μM or 0.25 μM of AβO, evaluated by automatic WB) diluted in control medium in presence of the compound.
Table I identifies two plates that exposed two concentrations of Aβ to different concentrations of bambuterol. The bambuterol was preincubated 1 hour before the application of Aβ.
Twenty-four hours after intoxication, the hippocampal neurons were fixed by a cold solution of ethanol (95%) and acetic acid (5%) for 5 min at −20° C. After permeabilization with 0.1% of saponin, cells were incubated for 2 hours with: • (a) chicken polyclonal antibody anti microtubule-associated-protein 2 (MAP-2), diluted at 1/1000 in PBS containing 1% fetal calf serum and 0.1% of saponin (this antibody allows the specific staining of neuronal cell bodies and neurites; and allow the study of neuronal cell death and neurite network); and • (b) mouse monoclonal antibody anti-phospho Tau (AT100) at dilution of 1/400 in PBS containing 1% fetal calf serum and 0.1% of saponin.
For each condition, multiple pictures (representative of the whole well area) per well were taken using ImageXpress (Molecular Devices) at 20× magnification. All images were taken with the same acquisition parameters. Analyses were performed automatically by using Custom Module Editor® (Molecular Devices). […]

The test system of experiment [2] is hyperphosphorylated Tau (AT100) in MAP-2 positive neurons. Description: Plate A: phospho Tau (AT100) evaluation in MAP-2 hippocampal neurons injured with Aβ1-42. The following applies: Aβ 20 μM 24 h, FIG. 2D. Format: cell-based, rat. As for the experimental part:
as §1, §2, §3
The supernatant was discarded, and the pellet was resuspended in a defined culture medium consisting of Neurobasal medium with a 2% solution of B27 supplement, 2 mmol/liter of L-glutamine, 2% of PS solution, and 10 ng/ml of brain-derived neurotrophic factor (BDNF). Viable cells were counted in a Neubauer cytometer, using the trypan blue exclusion test. Cells were seeded at a density of 20,000 per well in 96-well plates precoated with poly-L-lysine and cultured at 37° C. in an air (95%)-CO2 (5%) incubator. The medium was changed every 2 days. […]
(§4) Bambuterol was placed in a culture medium and preincubated for 1 hour before Aβ application. An Aβ1-42 preparation was added to a final concentration of 20 or 2.5 μM (=2 μM or 0.25 μM of AβO, evaluated by automatic WB) diluted in control medium in presence of the compound. […]

Experiment [3] has as its system rat primary hippocampal neurons injured with Aβ. Kind of experiment: Plate B: synapses evaluation (PSD95/SYN) in hippocampal neurons injured with Aβ1-42. The settings on record: Aβ 2.5 μM 24 h, FIG. 3. Format: cell-based. As for the experimental part: as §1
Rat hippocampal neurons were cultured as described by Callizot et al., Operational dissection of β-amyloid cytopathic effects of cultured neurons, J. Neurosci. Res. 2013 May; 91(5): 706-16. Pregnant female rats of 17 days gestation (Rats Wistar; Janvier Labs France) were euthanized using a deep anesthesia with a CO2 chamber followed by a cervical dislocation. […]
The supernatant was discarded, and the pellet was resuspended in a defined culture medium consisting of Neurobasal medium with a 2% solution of B27 supplement, 2 mmol/liter of L-glutamine, 2% of PS solution, and 10 ng/ml of brain-derived neurotrophic factor (BDNF). Viable cells were counted in a Neubauer cytometer, using the trypan blue exclusion test. […]
as §4
The following endpoints were assessed: • Total number of synapses (overlapping between PSD95/SYN).

With `COc1cc2c(cc1OC)C(=O)C(CC1CCN(Cc3ccccc3)CC1)C2` (stereo not drawn) [Donepezil], the “Neuronal survival (number of MAP-2 positive neurons)” value in experiment [1] (Aβ 20 μM 24 h, Donepezil 1 μM, FIG. 2A) is on record as “significantly protect neurons from death”. For the same compound, the “Total neurite network (MAP-2 positive neurons)” value in experiment [1] (Aβ 20 μM 24 h, Donepezil 1 μM, FIG. 2B) was “significantly preserved almost the whole neurite network”. In experiment [1] (Aβ 20 μM 24 h, Donepezil 1 μM), the “Neurite length per neuron (total neurite network normalized by the number of neurons)” value is “longer”. In experiment [2] (Donepezil 1 μM), the “Hyperphosphorylation of Tau (AT100)” value is “significantly mitigate this hyperphosphorylation”. For the same compound, the “Number of synapses (overlapping PSD95/SYN)” value in experiment [3] (Donepezil 1 μM) is “mitigated the loss of synapses”.
As to `CN(C)C(=O)Oc1cc(OC(=O)N(C)C)cc(C(O)CNC(C)(C)C)c1` (stereo not drawn) [bambuterol], the “Total neurite network (MAP-2 positive neurons)” value in experiment [1] (Aβ 20 μM 24 h, all investigated doses of bambuterol (1 nM to 1 μM), FIG. 2B) is “exerted protective effects on the neurite network”. Besides, in experiment [1] (Aβ 20 μM 24 h, bambuterol 1 nM to 1 μM), the “Neurite length per neuron (total neurite network normalized by the number of neurons)” value was “did not change this parameter”. Also, the “Neuronal survival (number of MAP-2 positive neurons)” value in experiment [1] (Aβ 20 μM 24 h, bambuterol highest doses 500 nM and 1 μM, FIG. 2A) is “did not show any protective effect”; in experiment [1] (Aβ 20 μM 24 h, bambuterol low doses 1 nM to 100 nM, preincubated 1 h, FIG. 2A) it was “significant neuroprotective effects to a similar or higher extent to donepezil”. Also, the “Dose of maximal effect on neurite network” value in experiment [1] (Aβ 20 μM 24 h, bell-shape curve, FIG. 2B) is 10 nM. Moreover, in experiment [1] (Aβ 20 μM 24 h, bell-shaped curve, FIG. 2A), the “Dose of maximal effect on neuronal survival” value is recorded as 10 nM. Besides, the “Effects of bambuterol compared with Donepezil (summary of the examples)” value in experiment [1] (bambuterol at a dose of 10 nM, hippocampal neurons injured with Aβ 1-42, overall statement over all readouts) is “comparable, and even greater, to those of Donepezil”. Also, the “Hyperphosphorylation of Tau (AT100)” value in experiment [2] (bambuterol all investigated doses (1 nM to 1 μM)) is given as “significantly reduced the hyperphosphorylation of Tau”. Also, the “Dose of maximal effect on hyperphosphorylation of Tau” value in experiment [2] (bell-shape curve) was found to be 10 nM. Moreover, the “Number of synapses (overlapping PSD95/SYN)” value in experiment [3] (bambuterol from 10 nM to 100 nM) is listed as “able to preserve the number of synapses”.
